From patent US20240327393A1 (SIRONAX LTD., priority 2021, published 2024)

Tested on: HT-1080 (ATCC, CCL-121) cells
Test: HT-1080 cell viability assay with ferroptosis inducer RSL3 (Cell Titer-Glo)
Format: cell-based
Details: Homo sapiens; HT-1080 cells treated with RSL3; 3-fold, 10-point dilution, 1.1 μM highest concentration; Table 2; read-out: EC50 (nM), ferroptosis inhibitory activity
Method in brief: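 EC50 was derived by sigmoidal dose-response regression of CellTiter-Glo luminescence viability, expressed relative to untreated wells. Compounds were tested in a ten-point, threefold dilution series (highest 1.1 μM) in the presence of the ferroptosis inducer RSL3. HT-1080 cells had been seeded at 6000 per well and grown overnight first.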

| EC50 [nM] | SMILES |
| --- | --- |
| 0.1 to 100 | CN1Cc2ccc(Nc3ccc(N4CCC(C(F)(F)F)CC4)c(F)c3)cc2C1=O [Compound 169, 6-((3-fluoro-4-(4-(trifluoromethyl)piperidin-1-yl)phenyl)amino)-2-methylisoindolin-1-one] |
| 0.1 to 100 | CC1CCN(c2ccc(Nc3ccc4c(c3)C(=O)N(C)C4)cc2)CC1 [Compound 170, 2-methyl-6-((4-(4-methylpiperidin-1-yl)phenyl)amino)isoindolin-1-one] |
| 0.1 to 100 | CN1Cc2ccc(Nc3ccc(N4CCC(C(F)(F)F)CC4)cc3)cc2C1=O [Compound 171, 2-methyl-6-((4-(4-(trifluoromethyl)piperidin-1-yl)phenyl)amino) isoindolin-1-one] |
| 0.1 to 100 | CN1Cc2cc(Nc3ccc(N4CCC(F)(F)CC4)cc3)ccc2C1=O [Compound 172, 5-((4-(4,4-difluoropiperidin-1-yl)phenyl)amino)-2-methylisoindolin-1-one] |
| 0.1 to 100 | CN1Cc2cc(Nc3ccc(N4CCC(C(F)(F)F)CC4)cc3)ccc2C1=O [Compound 173, 2-methyl-5-((4-(4-(trifluoromethyl)piperidin-1-yl)phenyl)amino) isoindolin-1-one] |
| 0.1 to 100 | CC1CCN(c2ccc(Nc3ccc4c(c3)CN(C)C4=O)cc2)CC1 [Compound 174, 2-methyl-5-((4-(4-methylpiperidin-1-yl)phenyl)amino)isoindolin-1-one] |
| 0.1 to 100 | CCN1Cc2ccc(Nc3ccc(N4CCC(C(F)(F)F)CC4)cc3)cc2C1 [Compound 175, 2-ethyl-N-(4-(4-(trifluoromethyl)piperidin-1-yl)phenyl)isoindolin-5-amine] |
| 0.1 to 100 | CCN1Cc2ccc(Nc3ccc(N4CCC(C)CC4)cc3)cc2C1 [Compound 176, 2-ethyl-N-(4-(4-methylpiperidin-1-yl)phenyl)isoindolin-5-amine] |
| 0.1 to 100 | CCN1Cc2ccc(Nc3ccc(N4CCCCC4)c(C(F)(F)F)c3)cc2C1 [Compound 177, 2-ethyl-N-(4-(piperidin-1-yl)-3-(trifluoromethyl)phenyl)isoindolin-5-amine] |
| 0.1 to 100 | CN1Cc2cc(Nc3ccc(N4CCCCC4)c(C(F)(F)F)c3)ccc2C1=O [Compound 178, 2-methyl-5-((4-(piperidin-1-yl)-3-(trifluoromethyl)phenyl)amino) isoindolin-1-one] |
| 0.1 to 100 | O=C1c2ccc(Nc3ccc(N4CCC(C(F)(F)F)CC4)cc3)cc2CN1CC1CC1 [Compound 179, 2-(cyclopropylmethyl)-5-((4-(4-(trifluoromethyl)piperidin-1-yl)phenyl)amino)isoindolin-1-one] |
| 0.1 to 100 | CCN1Cc2cc(Nc3ccc(N4CCC(C(F)(F)F)CC4)cc3)ccc2C1=O [Compound 180, 2-ethyl-5-((4-(4-(trifluoromethyl)piperidin-1-yl)phenyl)amino) isoindolin-1-one] |
| 0.1 to 100 | CC(C)(C)C(=O)N1Cc2ccc(Nc3ccc(N4CCC(C(F)(F)F)CC4)cc3)cc2C1 [Compound 181, 2,2-dimethyl-1-(5-((4-(4-(trifluoromethyl)piperidin-1-yl)phenyl)amino)isoindolin-2-yl)propan-1-one] |
| 0.1 to 100 | O=C1NCc2cc(Nc3ccc(N4CCC(C(F)(F)F)CC4)cc3)ccc21 [Compound 182, 5-((4-(4-(trifluoromethyl)piperidin-1-yl)phenyl)amino)isoindolin-1-one] |
| 0.1 to 100 | CN1Cc2cc(Nc3cnc(N4CCCCC4)c(F)c3)ccc2C1=O [Compound 183, 5-((5-fluoro-6-(piperidin-1-yl)pyridin-3-yl)amino)-2-methylisoindolin-1-one] |
| 0.1 to 100 | CC1CCN(c2ccc(Nc3ccc4c(c3)CN(CC3CC3)C4=O)cc2)CC1 [Compound 184, 2-(cyclopropylmethyl)-5-((4-(4-methylpiperidin-1-yl)phenyl)amino) isoindolin-1-one] |
| 0.1 to 100 | O=C1c2ccc(Nc3ccc(N4CCCCC4)cc3)cc2CN1CC1CC1 [Compound 185, 2-(cyclopropylmethyl)-5-((4-(piperidin-1-yl)phenyl)amino)isoindolin-1-one] |
